In article PMC11858653, “Design, Synthesis and Bioactive Evaluation of Topo I/c-MYC Dual Inhibitors to Inhibit Oral Cancer via Regulating the PI3K/AKT/NF-κB Signaling Pathway” (Molecules, 2025):
“Also recorded” adds a separate entry of the source.

Experiments:
[1] = tested on: Cal27; assay: MTT antiproliferative assay, Cal27; assay type: cell-based, human; conditions: mean ± SD
Experimental: (§1) Having evaluated their Topo I inhibitory activity, the antiproliferative activity of the target compounds against some common human cancer cell lines (NCI-H460, A549, ACHN, Cal27 and MGC-803) and one normal cell line (SV-HUC-1) was tested via an MTT assay. TPT, the first Topo I inhibitor approved in clinics, and cisplatin (CDDP), a commonly selected anticancer drug for treating head and neck malignancies, were used as the positive controls.
(§2) Human oral cancer Cal27 cells were seeded in 96-well plates and incubated overnight in 180 μL of medium containing 10% Fetal Bovine Serum (Gibco, San Francisco, CA, USA). […] Then, 10 μL of 5 mg/mL MTT solution was added to each well and incubated at 37 °C for 4 h. After 4 h of incubation at 37 °C, the MTT-containing medium was removed and DMSO was added to each well and the absorbance at 570 nm and 630 nm was measured using a microplate reader (CYTATION 3, Burton, Westwood, NJ, USA). Survival/% = (mean OD of experimental group/mean OD of control group) × 100%. Each test was repeated at least three times.

[2] = tested on: human oral cancer Cal27 xenograft tumor; assay: In vivo antitumor activity, Cal27 xenograft; parameters: species or system BALB/c nude mice; conditions: 2 mg/kg i.p. once every other day, 21 days
Experimental: Nude mouse organ and tumor tissues fixed with neutral formalin solution were paraffin-embedded according to the conventional processing method. Sections were cut to a thickness of approximately 5 μm, placed on glass slides and dewaxed in an oven at 60 °C, stained for H&E and immunohistochemistry and finally visualized with the Cytation 5 imaging system.
For this assay, 130 SPF-grade BALB/c mice (female, 4–6 weeks old, 18–20 g) were obtained from Chang Zhou Cavens Laboratory Animal Ltd. (Changzhou, China). The in vivo activity experiments were commissioned by Nanjing OG Pharmaceuticals, Co., Ltd. (Nanjing, China) All mice were housed in plastic cages, fed, and watered under standard conditions and air filtration (22 ± 2 °C; 12 h light/dark cycles). Under aseptic conditions, human oral cancer Cal27 cells were inoculated subcutaneously in the right axilla of BALB/c nude mice. When the tumors had grown to about 85 mm^3, 24 […] mice with good growth status and good homogeneity of tumor size were selected and randomly divided into the following four groups of six mice each: (1) the model group; (2) the low-dose group; (3) the high-dose group; and (4) the positive drug group. The drug dose in the low-dose group was 10 mg/kg, which was injected intraperitoneally once every other day, for the duration of 21 days of administration; the drug dose in the high-dose group was 20 mg/kg, which was injected intraperitoneally once every other day, for the duration of 21 days of administration; and the drug dose in the cisplatin group was 2 mg/kg, which was injected intraperitoneally once every other day, for the duration of 21 days of administration. Normal tissues of the heart, liver, spleen, lung and kidney and half of the tumor tissues were fixed with 4% formalin solution and embedded in paraffin for histological analysis; the other half of the tumor tissues were preserved in liquid nitrogen, and the supernatant was extracted after milling the tissues and detected by Western blot.

[3] = tested on: ACHN; assay: MTT antiproliferative assay, ACHN; assay type: cell-based, human; conditions: 48 h, mean ± SD
Experimental: as §1, §2

[4] = tested on: NCI-H460; assay: MTT antiproliferative assay, NCI-H460; assay type: cell-based, human; conditions: mean ± SD
Experimental: as §1, §2

[5] = tested on: MGC-803; assay: MTT antiproliferative assay, MGC-803; assay type: cell-based, human; conditions: mean ± SD
Experimental: as §1, §2

[6] = tested on: A549; assay: MTT antiproliferative assay, A549; assay type: cell-based, human; conditions: mean ± SD
Experimental: as §1, §2

[7] = tested on: SV-HUC-1; assay: MTT assay, normal cell line SV-HUC-1; assay type: cell-based; conditions: mean ± SD
Experimental: as §1, §2

[8] = target: T1, Topo I (Homo sapiens, UniProt P11387); assay: Topo I inhibitory activity, agarose gel electrophoresis (pBR322); assay type: biochemical; conditions: 20 μM
T1 sequence (P11387 1-765): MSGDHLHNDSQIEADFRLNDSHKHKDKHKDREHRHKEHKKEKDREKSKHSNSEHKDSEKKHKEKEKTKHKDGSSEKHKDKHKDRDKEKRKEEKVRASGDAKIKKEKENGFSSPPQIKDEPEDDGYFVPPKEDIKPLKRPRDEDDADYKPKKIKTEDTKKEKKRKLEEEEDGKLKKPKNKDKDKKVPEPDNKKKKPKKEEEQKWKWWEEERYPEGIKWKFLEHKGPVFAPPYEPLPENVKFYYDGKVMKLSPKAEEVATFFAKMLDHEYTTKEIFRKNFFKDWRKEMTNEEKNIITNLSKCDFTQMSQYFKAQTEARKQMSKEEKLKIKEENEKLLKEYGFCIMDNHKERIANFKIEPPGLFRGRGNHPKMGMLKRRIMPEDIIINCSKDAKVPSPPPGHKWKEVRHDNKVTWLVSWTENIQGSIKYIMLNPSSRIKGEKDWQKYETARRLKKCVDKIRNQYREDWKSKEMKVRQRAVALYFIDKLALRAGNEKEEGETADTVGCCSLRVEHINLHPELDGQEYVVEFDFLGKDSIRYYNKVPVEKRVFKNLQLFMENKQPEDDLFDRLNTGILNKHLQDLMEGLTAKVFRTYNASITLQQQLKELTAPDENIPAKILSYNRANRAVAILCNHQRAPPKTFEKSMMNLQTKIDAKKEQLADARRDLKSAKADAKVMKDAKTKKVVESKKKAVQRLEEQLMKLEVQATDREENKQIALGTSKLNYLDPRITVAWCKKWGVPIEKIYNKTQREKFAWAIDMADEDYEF
Experimental: In this assay, 250 ng of pBR322 plasmid DNA, different concentrations of the compounds to be tested, 0.1% BSA 1 μL, 10× Topo I buffer, Topo I and add 1× TAE buffer were mixed to a final volume of 20 μL. The reaction was carried out for 30 min at 37 °C in a water bath. After the reaction was terminated, 4 μL of each of the 6× DNA Sampling Buffers were added to the gel. The pBR322 plasmid DNA alone was used as a negative control, and camptothecin was used as a positive control. Finally, the samples were loaded onto the gels and electrophoresed for about 1.5 h. After electrophoresis, the gel blocks were incubated in 1 mg/L ethidium bromide (EB) for 30 min and then visualized on the gel system.

[9] = tested on: Cal27 cells; assay: MTT cell survival with autophagy inhibitor CQ; assay type: cell-based, human; conditions: Cal27, 20 μM alone
Experimental: Meanwhile, to further confirm that compound 7be could induce autophagic death in Cal27 cells, we used a classical autophagy inhibitor, chloroquine (CQ), to evaluate the role of autophagy in compound 7be-mix-induced cell death.
Human oral cancer Cal27 cells were seeded in 96-well plates and incubated overnight in 180 μL of medium containing 10% Fetal Bovine Serum (Gibco, San Francisco, CA, USA). On the following day, compounds at final concentrations of 2.5, 5, 10 and 20 μM were added to each well and incubated for 48 h. Then, 10 μL of 5 mg/mL MTT solution was added to each well and incubated at 37 °C for 4 h. After 4 h of incubation at 37 °C, the MTT-containing medium was removed and DMSO was added to each well and the absorbance at 570 nm and 630 nm was measured using a microplate reader (CYTATION 3, Burton, Westwood, NJ, USA). Survival/% = (mean OD of experimental group/mean OD of control group) × 100%. Each test was repeated at least three times.

Row | SMILES | IC50 ([3]; Homo sapiens, ACHN) | IC50 ([4]; Homo sapiens, NCI-H460, 48 h) | IC50 ([5]; Homo sapiens, MGC-803, 48 h) | IC50 ([6]; Homo sapiens, A549, 48 h) | Topo I inhibitory activity (in words) [8] | IC50 ([1]; Homo sapiens, CAL-27, 48 h) | IC50 ([7]; SV-HUC1, 48 h) | other results
1 | [NH2][Pt]([NH2])([Cl])[Cl] [CDDP, cisplatin, reference compound] |  |  |  |  |  |  |  | IC50 ([1]; 48 h): 8.81 ± 1.73 µM; relative tumor proliferation rate [2]: 39.8%; tumor inhibition rate / tumor growth inhibition (TGI) [2]: 59.44%; tumor inhibition rate / tumor growth inhibition (TGI) ([2]; listed as cisplatin): 59.4%; IC50 [3]: 12.4 ± 1.31 µM; IC50 ([4]; 48 h): 12.2 ± 1.01 µM; IC50 ([5]; 48 h): 12.3 ± 0.8 µM; IC50 ([6]; 48 h): 8.69 ± 1.05 µM
2 | Cc1cc(C)c2c(n1)S(=O)(=O)c1c-2nc(NCCCN(C)C)c2ccccc12 [7bf, 5-((3-(Dimethylamino)propyl)amino)-7,9-dimethylpyrido[3′,2′:4,5]thieno[3,2-c]isoquinoline 11,11-dioxide] | 6.67 ± 1.49 µM | 5.07 ± 1.92 µM | 8.44 ± 2.86 µM | 6.25 ± 2.23 µM | potent Topo I activity; also recorded: weak Topo I activity | 5.2 ± 1.2 µM | 5.14 ± 1.55 µM | 
3 | CCN(CC)CCCC(C)Nc1ccnc2cc(Cl)ccc12 (stereo not drawn) [CQ, chloroquine] |  |  |  |  |  |  |  | cell survival rate versus control group ([9]; 24 h): not significantly different; cell survival rate ([9]; 48 h): more than 80%
4 | CCN(CC)CCCNc1nc2c(c3ccccc13)S(=O)(=O)c1nc(-c3ccccc3)cc(C)c1-2 [7cg, 5-((3-(Diethylamino)propyl)amino)-7-methyl-9-phenylpyrido[3′,2′:4,5]thieno[3,2-c]isoquinoline 11,11-dioxide] |  |  |  |  |  |  |  | IC50 ([1]; 48 h): 17.7 ± 3.96 µM; IC50 [3]: 15.4 ± 3.65 µM; IC50 ([4]; 48 h): 16.6 ± 1.44 µM; IC50 ([5]; 48 h): 8.22 ± 2.75 µM; IC50 ([6]; 48 h): 27.1 ± 2.25 µM; IC50 ([7]; 48 h): 15.6 ± 3.18 µM; nicked DNA in the lane (DNA breakage) [8]: nicked DNA could be clearly observed
5 | Cc1cc(C)c2c(n1)S(=O)(=O)c1c-2nc(NCCN2CCCC2)c2ccccc12 [7bc, 7,9-Dimethyl-5-((2-(pyrrolidin-1-yl)ethyl)amino) pyrido[3′,2′:4,5]thieno[3,2-c]isoquinoline 11,11-dioxide] | 6.41 ± 1.41 µM | 9.57 ± 2.07 µM | 6.44 ± 0.76 µM | 5.47 ± 0.82 µM | potent Topo I activity | 3.36 ± 0.83 µM | 8.17 ± 3.36 µM | 

Continued, in another order:

Row | IC50 ([3]; Homo sapiens, ACHN) | IC50 ([4]; Homo sapiens, NCI-H460, 48 h) | IC50 ([5]; Homo sapiens, MGC-803, 48 h) | IC50 ([6]; Homo sapiens, A549, 48 h) | Topo I inhibitory activity (in words) [8] | SMILES | IC50 ([1]; Homo sapiens, CAL-27, 48 h) | IC50 ([7]; SV-HUC1, 48 h) | other results
6 | 26.9 ± 0.72 µM | 57.8 ± 0.65 µM | 24.37 ± 0.18 µM | 30 ± 0.31 µM |  | CCN(CC)CCCNc1nc2c(c3ccccc13)S(=O)(=O)c1ncccc1-2 [7ag, 5-((3-(Diethylamino)propyl)amino)pyrido[3′,2′:4,5] thieno[3,2-c]isoquinoline 11,11-dioxide] | 22.5 ± 1.84 µM | 75.8 ± 2.79 µM | nicked DNA in the lane (DNA breakage) [8]: nicked DNA could be clearly observed
7 | 6.89 ± 2.86 µM | 6.92 ± 2.01 µM | 6.23 ± 1.96 µM | 6.54 ± 0.52 µM | weak Topo I activity | CCN(CC)CCCNc1nc2c(c3ccccc13)S(=O)(=O)c1nc(C)cc(C)c1-2 [7bg, 5-((3-(Diethylamino)propyl)amino)-7,9-dimethyl-pyrido[3′,2′:4,5]thieno[3,2-c]isoquinoline 11,11-dioxide] | 6.35 ± 3.28 µM | 4.38 ± 0.46 µM | 
